We go through four compounds from ChEMBL document CHEMBL2346567, “Selective aminopeptidase-N (CD13) inhibitors with relevance to cancer chemotherapy” (Bioorg Med Chem, 2013).

In series [1] the test system is HUVEC. In words: Antimigratory activity against human HUVEC cells at 0.1 to 1 uM after 16 hrs by wound healing assay. Format: functional, cell-based.
The subject of series [2] is Caco-2. In words: Antimigratory activity against human Caco2/TC7 cells up to 1 uM after 16 hrs by wound healing assay. Format: functional, cell-based.
Series [3] relates to Mus musculus. The series is described as follows: Toxicity in Swiss nude mouse assessed as transient body weight loss at 100 mg/kg, ip measured up to 2 days relative to control. As to conditions: in vivo, 48 h. Format: organism-based. Set-up: dose 100 mg/kg, route intraperitoneal.
The subject of series [4] is HUVEC. The series is described as follows: Antimigratory activity against human HUVEC cells assessed as inhibition of VEGF-induced migration at 0.1 uM after 16 hrs by Boyden chamber assay. Format: functional.
Series [5] concerns the target T1, Aminopeptidase N (Mus musculus, UniProt P97449).
T1 sequence (P97449 whole entry): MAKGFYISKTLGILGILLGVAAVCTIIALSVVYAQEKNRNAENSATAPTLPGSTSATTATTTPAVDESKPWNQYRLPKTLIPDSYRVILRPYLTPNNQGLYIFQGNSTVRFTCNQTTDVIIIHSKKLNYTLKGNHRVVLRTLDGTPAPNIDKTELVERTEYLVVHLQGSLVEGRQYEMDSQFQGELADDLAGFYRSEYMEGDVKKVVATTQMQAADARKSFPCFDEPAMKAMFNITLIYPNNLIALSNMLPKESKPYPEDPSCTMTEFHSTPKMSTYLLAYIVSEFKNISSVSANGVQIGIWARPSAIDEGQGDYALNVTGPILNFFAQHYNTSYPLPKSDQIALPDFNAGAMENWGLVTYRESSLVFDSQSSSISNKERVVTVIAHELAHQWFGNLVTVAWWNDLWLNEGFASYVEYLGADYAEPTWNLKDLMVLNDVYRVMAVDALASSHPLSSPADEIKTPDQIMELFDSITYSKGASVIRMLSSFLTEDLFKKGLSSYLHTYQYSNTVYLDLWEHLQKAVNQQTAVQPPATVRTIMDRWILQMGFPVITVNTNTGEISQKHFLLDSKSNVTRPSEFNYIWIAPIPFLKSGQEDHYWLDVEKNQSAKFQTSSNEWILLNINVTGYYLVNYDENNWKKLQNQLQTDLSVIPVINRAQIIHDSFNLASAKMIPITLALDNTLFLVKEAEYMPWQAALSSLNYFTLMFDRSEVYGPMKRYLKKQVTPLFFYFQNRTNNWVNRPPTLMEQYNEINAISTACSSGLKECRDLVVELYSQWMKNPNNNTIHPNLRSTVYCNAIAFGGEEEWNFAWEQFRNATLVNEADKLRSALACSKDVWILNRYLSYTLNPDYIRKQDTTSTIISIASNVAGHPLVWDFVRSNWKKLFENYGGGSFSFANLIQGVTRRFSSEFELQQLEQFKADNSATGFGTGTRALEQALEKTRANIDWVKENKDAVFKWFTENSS
In words: Inhibition of mouse APN using L-leucine-p-nitroanilide as substrate measured every 10 mins for 2 hrs by spectrophotometric analysis.

The test system of series [6] is HUVEC. The series is described as follows: Antimigratory activity against human HUVEC cells after 16 hrs by wound healing assay. Format: functional, cell-based.
Series [7] can be described thus: Chemical stability of the compound in DMSO solution at 5 mg/ml after 20 days at 25 degC. Format: physicochemical. As to conditions: 480 h.
The nature of series [8]: Chemical stability of the compound in DMSO solution at 5 mg/ml after 20 days at -20 degC. Format: physicochemical. As to conditions: 480 h.
Series [9] relates to Mus musculus. The series is described as follows: Toxicity in Swiss nude mouse assessed as convulsions at 100 mg/kg, ip administered once every 3 days 4 times measured post second-dose. Format: organism-based. Set-up: dose 100 mg/kg, route intraperitoneal. As to conditions: in vivo, 72 h.
For series [10], the system named is A673. The series is described as follows: Antiangiogenic activity against human A673 cells xenografted in athymic nude mouse assessed as reduction in microvessel density at 40 mg/kg, ip administered as single dose measured on day 26 relative to control. Format: functional, organism-based. Set-up: dose 40 mg/kg. A general note: In xenograft studies the graft and the host belong to different species.

Series [11] has as its system Mus musculus. The series is described as follows: Toxicity in Swiss nude mouse assessed as adverse effects at 40 mg/kg, ip administered once every 3 days 8 times measured after 29 days. As to conditions: in vivo, 696 h. More on the design: dose 40 mg/kg, route intraperitoneal. Format: organism-based.
Series [12] concerns Caco-2. In words: Antimigratory activity against human Caco2/TC7 cells after 16 hrs by wound healing assay. Format: functional, cell-based.
Series [13] in a line: Cytotoxicity against human HUVEC cells assessed as concentration of compound causing 50% cell death after 24 hrs. Format: cell-based. As to conditions: read-out: Activity.
The subject of series [14] is HUVEC. The series is described as follows: Antiangiogenic activity against human HUVEC cells assessed as inhibition of capillary tube formation at 1 uM after 24 hrs by phase contrast microscopic analysis. Format: functional, cell-based.
Series [15] deals with Aminopeptidase N (Homo sapiens, UniProt P15144).
Description: Inhibition of human APN using L-leucine-p-nitroanilide as substrate measured every 10 mins for 2 hrs by spectrophotometric analysis
For series [16], the target named is Matrix metalloproteinase-9 (Homo sapiens) (UniProt P14780). In words: Inhibition of MMP9 (unknown origin) up to 50 uM.
In series [17] the test system is A673. In words: Antitumor activity against human A673 cells xenografted in athymic nude mouse assessed as tumor growth inhibition at 40 mg/kg, ip administered as single dose measured on day 26 relative to control. Format: functional. As to conditions: 624 h, route intraperitoneal, read-out: TGI.
Series [18] has as its target Macrophage metalloelastase (Homo sapiens) (UniProt P39900). The series is described as follows: Inhibition of MMP12 (unknown origin) up to 50 uM.
Series [19] has as its target T2, Stromelysin-3 (Homo sapiens) (UniProt P24347).
T2 sequence (whole entry): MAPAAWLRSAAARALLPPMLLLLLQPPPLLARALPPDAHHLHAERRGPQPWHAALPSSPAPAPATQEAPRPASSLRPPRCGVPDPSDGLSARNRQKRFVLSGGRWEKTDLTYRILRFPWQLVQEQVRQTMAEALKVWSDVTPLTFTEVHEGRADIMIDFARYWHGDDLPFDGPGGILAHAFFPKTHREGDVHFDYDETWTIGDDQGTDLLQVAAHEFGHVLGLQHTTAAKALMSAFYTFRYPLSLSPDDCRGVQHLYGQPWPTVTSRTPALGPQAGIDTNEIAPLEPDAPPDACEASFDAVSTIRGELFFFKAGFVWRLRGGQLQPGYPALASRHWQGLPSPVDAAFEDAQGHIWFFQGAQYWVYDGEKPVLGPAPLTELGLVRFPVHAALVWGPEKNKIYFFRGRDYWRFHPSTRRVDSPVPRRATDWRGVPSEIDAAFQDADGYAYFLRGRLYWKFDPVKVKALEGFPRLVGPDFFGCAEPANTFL
The series is described as follows: Inhibition of MMP11 (unknown origin) up to 50 uM.

Series [20] concerns the target 72 kDa type IV collagenase (Homo sapiens) (UniProt P08253). The series is described as follows: Inhibition of MMP2 (unknown origin) up to 50 uM.
The target in series [21] is Collagenase 3 (Homo sapiens) (UniProt P45452). The series is described as follows: Inhibition of MMP13 (unknown origin) up to 50 uM.
Series [22] is described as follows: Chemical stability of the compound in DMSO solution at 5 mg/ml after 20 days at 4 degC. Format: physicochemical. As to conditions: 480 h.
Series [23] concerns Mus musculus. The series is described as follows: Toxicity in Swiss nude mouse assessed as catalepsy at 70 mg/kg, ip administered once every 3 days 8 times measured post second-dose. As to conditions: in vivo, 72 h. More on the design: dose 70 mg/kg, route intraperitoneal. Format: organism-based.
In series [24] the test system is HUVEC. In words: Antiangiogenic activity against human HUVEC cells assessed as inhibition of capillary tube formation at 300 uM after 24 hrs by phase contrast microscopic analysis. Format: functional, cell-based.
Series [25] has as its system A673. The series is described as follows: Antiangiogenic activity against human A673 cells xenografted in athymic nude mouse assessed as reduction in microvessel density at 30 mg/kg, ip administered as single dose measured on day 26 relative to control. More on the design: dose 30 mg/kg. Format: functional, organism-based.
Series [26] deals with HUVEC. The series is described as follows: Antimigratory activity against human HUVEC cells at 0.01 uM after 16 hrs by wound healing assay. Format: functional, cell-based.
The nature of series [27]: Antitumor activity against human colon cancer cells expressing low level of APN xenografted in athymic nude mouse at 30 mg/kg, ip administered once every 3 days relative to control. Format: functional. As to conditions: Cancer cell lines, 72 h, route intraperitoneal, read-out: TGI.
The nature of series [28]: Antimigratory activity against human Caco2/TC7 cells at 1 uM after 16 hrs by wound healing assay. Format: functional, Caco-2.
Series [29] has as its system HUVEC. In words: Antimigratory activity against human HUVEC cells assessed as inhibition of VEGF-induced migration at 1 uM after 16 hrs by Boyden chamber assay. Format: functional.
A further series deals with HT-29. The series is described as follows: Antitumor activity against human HT-29 cells expressing low level of APN xenografted in athymic nude mouse at 30 mg/kg, ip administered once every 3 days relative to control. Format: functional. As to conditions: HT-29, ip, 72 h, route intraperitoneal, read-out: TGI.
The test system of series [30] is A673. The series is described as follows: Antitumor activity against human A673 cells xenografted in athymic nude mouse assessed as tumor growth inhibition at 30 mg/kg, ip administered as single dose measured on day 26 relative to control. Format: functional. As to conditions: 624 h, route intraperitoneal, read-out: TGI.
The nature of series [31]: Antimigratory activity against human Caco2/TC7 cells at 0.1 uM after 16 hrs by wound healing assay. Format: functional, Caco-2.
Series [32] is described as follows: Antitumor activity against human colon cancer cells expressing high level of APN xenografted in athymic nude mouse at 30 mg/kg, ip administered once every 3 days relative to control. Format: functional. As to conditions: Cancer cell lines, 72 h, route intraperitoneal, read-out: TGI.
The test system of series [33] is HUVEC. In words: Antiangiogenic activity against human HUVEC cells assessed as inhibition of capillary tube formation at 10 uM after 24 hrs by phase contrast microscopic analysis. Format: functional, cell-based.

Structures are written as SMILES. pKi: −log10 of the molar value. Active and inactive are the calls of the source. The calls are words filed in the database; no cut-off is given here.

Chain of Macrophage metalloelastase (Homo sapiens) (P39900 106-470 limits assumed): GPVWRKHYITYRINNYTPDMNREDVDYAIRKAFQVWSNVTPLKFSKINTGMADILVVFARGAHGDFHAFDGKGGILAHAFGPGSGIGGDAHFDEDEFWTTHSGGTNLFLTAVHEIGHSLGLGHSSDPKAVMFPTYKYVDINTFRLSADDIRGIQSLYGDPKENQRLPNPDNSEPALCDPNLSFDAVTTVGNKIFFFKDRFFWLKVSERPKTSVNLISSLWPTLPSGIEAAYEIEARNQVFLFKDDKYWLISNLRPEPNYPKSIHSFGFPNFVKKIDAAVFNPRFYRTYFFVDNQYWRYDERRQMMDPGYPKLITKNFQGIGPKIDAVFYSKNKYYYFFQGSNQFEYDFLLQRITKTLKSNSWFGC
Chain of Matrix metalloproteinase-9 (Homo sapiens) (P14780 whole entry): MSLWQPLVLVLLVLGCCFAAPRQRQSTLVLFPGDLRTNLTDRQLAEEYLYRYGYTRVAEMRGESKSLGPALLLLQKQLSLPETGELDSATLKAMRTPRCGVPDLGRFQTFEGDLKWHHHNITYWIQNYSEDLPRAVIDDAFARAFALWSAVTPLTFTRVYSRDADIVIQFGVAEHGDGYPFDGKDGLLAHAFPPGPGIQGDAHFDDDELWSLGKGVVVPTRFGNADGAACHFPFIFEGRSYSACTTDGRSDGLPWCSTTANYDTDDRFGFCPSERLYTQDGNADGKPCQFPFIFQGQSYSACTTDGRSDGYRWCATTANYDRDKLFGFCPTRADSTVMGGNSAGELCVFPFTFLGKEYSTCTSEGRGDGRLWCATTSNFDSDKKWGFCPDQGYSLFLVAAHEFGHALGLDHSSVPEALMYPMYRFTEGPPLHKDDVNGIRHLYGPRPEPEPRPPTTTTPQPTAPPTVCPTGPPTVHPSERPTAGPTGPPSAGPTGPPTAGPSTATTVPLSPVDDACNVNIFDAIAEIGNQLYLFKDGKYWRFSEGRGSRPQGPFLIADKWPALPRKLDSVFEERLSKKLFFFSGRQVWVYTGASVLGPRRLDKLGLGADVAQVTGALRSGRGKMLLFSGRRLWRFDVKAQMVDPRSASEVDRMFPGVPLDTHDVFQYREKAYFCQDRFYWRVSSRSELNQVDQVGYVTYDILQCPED
Chain of 72 kDa type IV collagenase (Homo sapiens) (P08253 110-660 limits assumed): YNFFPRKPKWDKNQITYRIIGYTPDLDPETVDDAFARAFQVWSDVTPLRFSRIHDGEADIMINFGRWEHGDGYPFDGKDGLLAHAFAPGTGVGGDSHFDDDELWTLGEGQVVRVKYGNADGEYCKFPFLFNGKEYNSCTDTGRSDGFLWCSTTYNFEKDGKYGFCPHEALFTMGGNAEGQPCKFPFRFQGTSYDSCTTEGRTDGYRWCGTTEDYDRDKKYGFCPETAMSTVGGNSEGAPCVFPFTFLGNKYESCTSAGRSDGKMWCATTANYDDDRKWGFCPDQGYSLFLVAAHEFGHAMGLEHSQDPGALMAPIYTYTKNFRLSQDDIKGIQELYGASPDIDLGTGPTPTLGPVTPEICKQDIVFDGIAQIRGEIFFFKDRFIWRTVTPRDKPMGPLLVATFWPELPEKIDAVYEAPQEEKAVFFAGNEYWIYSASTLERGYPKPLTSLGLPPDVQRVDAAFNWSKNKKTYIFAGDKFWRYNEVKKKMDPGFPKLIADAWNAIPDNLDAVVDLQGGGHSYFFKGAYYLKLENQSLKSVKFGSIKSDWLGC
Chain of Aminopeptidase N (Homo sapiens, UniProt P15144) (P15144 whole entry): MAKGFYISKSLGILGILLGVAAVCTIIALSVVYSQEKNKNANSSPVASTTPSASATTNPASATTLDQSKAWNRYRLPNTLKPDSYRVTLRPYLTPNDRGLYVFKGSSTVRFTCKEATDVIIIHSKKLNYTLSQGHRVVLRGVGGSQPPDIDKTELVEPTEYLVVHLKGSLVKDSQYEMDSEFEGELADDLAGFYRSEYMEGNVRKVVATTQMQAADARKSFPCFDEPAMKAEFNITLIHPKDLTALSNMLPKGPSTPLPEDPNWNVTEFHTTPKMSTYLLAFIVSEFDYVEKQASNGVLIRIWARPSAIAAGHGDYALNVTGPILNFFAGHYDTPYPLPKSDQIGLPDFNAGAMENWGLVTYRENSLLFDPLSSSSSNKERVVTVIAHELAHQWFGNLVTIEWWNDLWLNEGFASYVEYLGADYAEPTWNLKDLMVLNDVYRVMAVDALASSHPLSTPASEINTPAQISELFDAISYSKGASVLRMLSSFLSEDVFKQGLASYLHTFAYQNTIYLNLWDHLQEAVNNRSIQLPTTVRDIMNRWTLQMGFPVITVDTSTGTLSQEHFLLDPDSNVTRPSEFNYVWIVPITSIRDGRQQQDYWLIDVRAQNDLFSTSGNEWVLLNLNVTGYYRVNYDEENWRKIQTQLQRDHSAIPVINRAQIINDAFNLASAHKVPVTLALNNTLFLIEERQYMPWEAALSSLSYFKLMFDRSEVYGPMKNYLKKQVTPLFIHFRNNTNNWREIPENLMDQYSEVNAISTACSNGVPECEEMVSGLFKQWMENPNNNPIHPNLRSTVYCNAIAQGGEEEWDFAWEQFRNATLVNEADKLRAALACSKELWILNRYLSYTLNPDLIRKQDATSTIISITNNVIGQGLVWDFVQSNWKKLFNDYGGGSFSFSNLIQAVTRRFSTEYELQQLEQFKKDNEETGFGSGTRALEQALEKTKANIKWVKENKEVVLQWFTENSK

`Cl.NC1CCc2cccc(-c3ccccc3)c2CC1=O` (stereo unspecified): the result with HUVEC [1] was Active. Moreover, the outcome with Caco-2 [2] and in the series with A673 [10] was inactive. Also, the Activity entry in the series on Mus musculus [3] was “Toxic”; in the series with HUVEC [6], “Dose-dependent effect”; in the series on Mus musculus [9], “Toxic”; with Mus musculus [11] it was “Non-toxic”; in the series on Caco-2 [12] it was “Dose-dependent effect”; in the series with Mus musculus [23] it was “Toxic”. For the same compound, in the series with HUVEC [4], the inhibition – broadly, the drop in the measured response relative to a control, in per cent – at 0.1 µM worked out at 70%. For the same compound, the pKi (in general, −log10 of the Ki, conventionally taken in molar units) was 8.00 at Aminopeptidase N [5] and 7.96 on Aminopeptidase N [15]. The Stability result in [7], in [8] and in series [22] was “Stable” throughout. Besides, the CC50 at 24 h in series [13] turned out to be 20000 nM. Also, in the series with HUVEC [14], the inhibition entry was “Active”. The inhibition entry in [16], in series [18], in series [19], in series [20] and in series [21] was “inactive” each time. Also, in the series with A673 [17], the inhibition in vivo at 40 mg/kg came to 18%.
For `CC(C)C[C@H](NC(=O)[C@@H](O)[C@H](N)Cc1ccccc1)C(=O)O`, in the series on HUVEC [24], the inhibition result is “Active”.
Take `NC1CCc2c(Br)ccc(-c3ccccc3)c2CC1=O` (stereo unspecified): the outcome in the series with HUVEC [1], in the series on A673 [25] and in the series with HUVEC [26] was Active. The same compound showed a negative-log Ki (pKi) at Aminopeptidase N [5] of 9.70. The Activity entry is “Dose-dependent effect” in the series on HUVEC [6]; “Non-toxic” in the series on Mus musculus [11]; “Dose-dependent effect” in the series on Caco-2 [12]; 40% in [28]; 30% in series [31]. Also, the Stability entry in [7], in [8] and in series [22] was “Stable” throughout. The inhibition in vivo at 30 mg/kg was 8% in series [27], 15% in the series with HT-29, 44% with A673 [30] and 26% in series [32]. Also, the CC50 at 24 h in [13] amounted to 10000 nM. Also, the inhibition entry in the series on HUVEC [14] was “Active”. Moreover, the inhibition result in [16], in series [18], in series [19], in series [20] and in [21] was “inactive” throughout. Further, the inhibition at 1 µM in the series with HUVEC [29] stood at 70%.
On to `NC1CCc2ccccc2CC1=O` (stereo unspecified), for which, in the series with HUVEC [33], the inhibition result was “Active”. The CC50 at 24 h in series [13] was determined as 100000 nM. The same compound had a negative logarithm of the Ki (pKi) at Aminopeptidase N [15] of 5.70. In addition, the inhibition entry in [16], in series [18], in series [19], in series [20] and in series [21] was “inactive” in each case.
